One experiment has as its target T1, Aurora-2 (Homo sapiens, UniProt O14965).
T1 sequence (O14965 1-403): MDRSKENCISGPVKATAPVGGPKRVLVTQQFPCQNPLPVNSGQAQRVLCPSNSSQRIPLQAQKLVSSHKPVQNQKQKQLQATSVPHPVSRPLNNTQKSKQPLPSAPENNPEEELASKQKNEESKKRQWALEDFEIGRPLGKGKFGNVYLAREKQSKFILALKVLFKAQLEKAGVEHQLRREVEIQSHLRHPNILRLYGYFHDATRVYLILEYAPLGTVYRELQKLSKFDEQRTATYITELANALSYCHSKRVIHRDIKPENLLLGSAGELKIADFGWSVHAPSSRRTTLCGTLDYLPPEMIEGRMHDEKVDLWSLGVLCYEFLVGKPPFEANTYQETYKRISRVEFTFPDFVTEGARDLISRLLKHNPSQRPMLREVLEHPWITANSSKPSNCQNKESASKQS
Kind of experiment: Ki determination for the inhibition of Aurora-2, standard coupled enzyme assay. Type of experiment: biochemical. Particulars: 70 nM Aurora-2, 800 μM peptide LRRASLG, 30° C. On the procedure: Compounds were screened in the following manner for their ability to inhibit Aurora-2 using a standard coupled enzyme assay (Fox et al. (1998) Protein Sci. 7, 2249).
To an assay stock buffer solution containing 0.1M HEPES 7.5, 10 mM MgCl2, 1 mM DTT, 25 mM NaCl, 2.5 mM phosphoenolpyruvate, […], 30 mg/ml pyruvate kinase, 10 mg/ml lactate dehydrogenase, […], and 800 μM peptide (LRRASLG, American Peptide, Sunnyvale, Calif.) was added a DMSO solution of a compound of the present invention to a final concentration of 30 μM. The resulting mixture was incubated at 30° C. for 10 min. The reaction was initiated by the addition of 10 μL of Aurora-2 stock solution to give a final concentration of 70 nM in the assay. The rates of reaction were obtained by monitoring absorbance at 340 nm over a 5 minute read time at 30° C. using a BioRad Ultramark plate reader (Hercules, Calif.). The Ki values were determined from the rate data as a function of inhibitor concentration.

Another experiment has as its target T2, GSK-3β (AA 1-420) (Homo sapiens, UniProt P49841).
T2 construct: GSK-3β (AA 1-420)
As to the kind of experiment: Ki determination for the inhibition of GSK-3, standard coupled enzyme system. Type of experiment: biochemical. Particulars: 20 μM ATP, 300 μM peptide, 20 nM GSK-3β, 30° C.; read-out: Ki values for GSK-3. On the procedure:
Final substrate concentrations in the assay were 20 μM ATP (Sigma Chemicals, St Louis, Mo.) and 300 μM peptide (HSSPHQS(PO3H2)EDEEE, American Peptide, Sunnyvale, Calif.). Reactions were carried out at 30° C. and 20 nM GSK-3β. Final concentrations of the components of the coupled enzyme system were 2.5 mM phosphoenolpyruvate, 300 μM NADH, 30 μg/ml pyruvate kinase and 10 μg/ml lactate dehydrogenase.
An assay stock buffer solution was prepared containing all of the reagents listed above with the exception of ATP and the test compound of interest. The assay stock buffer solution (175 μl) was incubated in a 96 well plate with 5 μl of the test compound of interest at final concentrations spanning 0.002 μM to 30 μM at 30 ° C. for 10 min. […] The reaction was initiated by the addition of 20 μl of ATP (final concentration 20 μM). Rates of reaction were obtained using a Molecular Devices Spectramax plate reader (Sunnyvale, Calif.) over 10 min at 30° C. The Ki values were determined from the rate data as a function of inhibitor concentration.

The values below come from patent US6916798B2, “Inhibitors of GSK-3 and uses thereof” (Vertex Pharmaceuticals Incorporated, priority 2001, dated 2005).

T2 sequence (P49841 whole entry, the tested form may be a part): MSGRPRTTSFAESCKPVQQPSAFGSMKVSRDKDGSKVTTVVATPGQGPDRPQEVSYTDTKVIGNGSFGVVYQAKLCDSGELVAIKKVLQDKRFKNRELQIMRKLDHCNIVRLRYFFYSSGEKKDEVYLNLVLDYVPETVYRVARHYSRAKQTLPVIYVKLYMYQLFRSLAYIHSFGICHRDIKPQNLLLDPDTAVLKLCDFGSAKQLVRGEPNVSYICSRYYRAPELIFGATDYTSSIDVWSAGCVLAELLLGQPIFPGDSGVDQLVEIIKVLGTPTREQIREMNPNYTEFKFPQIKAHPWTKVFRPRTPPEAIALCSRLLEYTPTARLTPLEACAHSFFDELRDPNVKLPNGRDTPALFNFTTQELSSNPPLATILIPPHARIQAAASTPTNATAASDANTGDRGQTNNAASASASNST

One may read the Ki as the equilibrium dissociation constant of an inhibitor or competing ligand from its target. In the case of `COc1ccc(N/N=C2\C(=O)NN=C2c2cc(OC)c(OC)c(OC)c2)cc1` [Compound 22], the Ki at Aurora-2 and at GSK-3β (AA 1-420) was < 100 nM throughout.
With `COc1cc(C2=NNC(=O)C2=NNc2ccc(Cl)cc2)cc(OC)c1OC` [Compound 23], the inhibition constant (Ki) on Aurora-2 and at GSK-3β (AA 1-420) was < 100 nM throughout.
As to `CCN(CC)c1ccc(N/N=C2\C(=O)NN=C2c2ccc(OC)c(OC)c2)cc1` [Compound 37], the Ki at Aurora-2 and on GSK-3β (AA 1-420) was < 100 nM throughout.
Regarding `COc1ccc(C2=NNC(=O)/C2=N\Nc2ccc(Cl)cc2)cc1` [Compound 43], the Ki on Aurora-2 is 100 to 1000 nM; on GSK-3β (AA 1-420), < 100 nM.
In the same order, the values of `COc1ccc(N/N=C2\C(=O)NN=C2c2ccc(OC)c(OC)c2)cc1` [Compound 47] are < 100 nM and < 100 nM.
Taken in the same sequence, the figures for `COc1ccc(C2=NNC(=O)/C2=N\Nc2ccc(N(C)C)cc2)cc1OC` [Compound 52] were < 100 nM and < 100 nM.
In the same order, the values of `COc1ccc(C2=NNC(=O)/C2=N\Nc2ccc(C#N)cc2)cc1OC` [Compound 58] are 100 to 1000 nM and < 100 nM.
In the case of `COc1ccc(C2=NNC(=O)/C2=N\Nc2ccc(N3CCOCC3)cc2)cc1` [Compound 60], the Ki on Aurora-2 is 100 to 1000 nM; on GSK-3β (AA 1-420) it was < 100 nM.
For `COc1ccc(C2=NNC(=O)/C2=N\Nc2ccc(N3CCOCC3)cc2)cc1OC` [Compound 61], the inhibition constant Ki at Aurora-2 and on GSK-3β (AA 1-420) was < 100 nM throughout.
Turning to `COc1cccc(C2=NNC(=O)/C2=N\Nc2ccc(N3CCOCC3)cc2)c1` [Compound 62], the Ki on Aurora-2 was 100 to 1000 nM; at GSK-3β (AA 1-420), < 100 nM.
In the same order, the values of `COc1ccc(C2=NNC(=O)/C2=N\Nc2cccc(Cl)c2)cc1OC` [Compound 70] are 100 to 1000 nM and < 100 nM.
Taken in the same sequence, the figures for `COc1cccc(N/N=C2\C(=O)NN=C2c2ccc(OC)c(OC)c2)c1` [Compound 73] were < 100 nM and < 100 nM.
Taken in the same sequence, the figures for `COc1ccc(C2=NNC(=O)C2=NNc2ccc(Oc3ccccc3)cc2)cc1OC` [Compound 86] were < 100 nM and < 100 nM.
As for `COc1ccc(C2=NNC(=O)C2=NNc2ccc3c(c2)C(=O)c2ccccc2-3)cc1OC` [Compound 207], at GSK-3β (AA 1-420), the Ki was < 100 nM.
On the same count and under the same terms, with `O=C1NN=C(c2ccc(N3CCOCC3)cc2)C1=NNc1ccc2c(c1)C(=O)c1ccccc1-2` [Compound 208] the figure was < 100 nM; with `COc1ccc(C2=NNC(=O)C2=NNc2ccc3c(c2)OCO3)cc1` [Compound 213], < 100 nM.
Still for that read-out and setting: with `CCn1c2ccccc2c2cc(NN=C3C(=O)NN=C3c3ccc(OC)cc3)ccc21` [Compound 217] the figure was < 100 nM; with `CCn1c2ccccc2c2cc(NN=C3C(=O)NN=C3c3ccc(OC)c(OC)c3)ccc21` [Compound 218], < 100 nM.
On the same count and under the same terms, with `COc1ccc(C2=NNC(=O)C2=NNc2ccc(OC)c(-c3ccccc3)c2)cc1` [Compound 220] the figure was < 100 nM.
As to `CCN(CCO)c1ccc(NN=C2C(=O)NN=C2c2cc(OC)c(OC)c(OC)c2)cc1` [Compound 223], the Ki on Aurora-2 and on GSK-3β (AA 1-420) was < 100 nM throughout.
For `COc1ccc(Nc2ccc(NC=C3C(=O)NN=C3c3ccc(OC)cc3)cc2)cc1` [Compound 224], the Ki at GSK-3β (AA 1-420) lay in the range of 100 to 1000 nM.
The same measure, in the same setting: under `COc1cc(C2=NNC(=O)C2=NNc2ccc(OC)c(Br)c2)ccc1O` [Compound 225] stands < 100 nM.
On the same count and under the same terms, with `COc1cc(C2=NNC(=O)C2=CNc2cc(C)[nH]n2)cc(OC)c1OC` [Compound 227] the figure was 100 to 1000 nM.
